Assays:
Type in all cases: biochemical
FXIIa alpha (Human) = biological target: T1, FXIIa alpha (Human) (Homo sapiens, UniProt P00748); assay: Determination of Factor XIIa inhibition, chromogenic substrate S-2302; settings: 10 nM FXIIa, 450 μM S-2302, 37° C., pH 7.4; Ki converted from IC50
T1 construct: FXIIa alpha
T1 sequence (P00748 373-615 limits assumed): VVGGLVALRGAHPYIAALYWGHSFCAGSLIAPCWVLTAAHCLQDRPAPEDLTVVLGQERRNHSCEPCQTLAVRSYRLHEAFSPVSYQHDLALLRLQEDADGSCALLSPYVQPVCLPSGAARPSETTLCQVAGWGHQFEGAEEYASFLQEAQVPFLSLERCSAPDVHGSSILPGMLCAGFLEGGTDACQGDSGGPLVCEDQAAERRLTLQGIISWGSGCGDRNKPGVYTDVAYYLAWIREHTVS
T1 sequence (P00748 20-372 partner limits assumed): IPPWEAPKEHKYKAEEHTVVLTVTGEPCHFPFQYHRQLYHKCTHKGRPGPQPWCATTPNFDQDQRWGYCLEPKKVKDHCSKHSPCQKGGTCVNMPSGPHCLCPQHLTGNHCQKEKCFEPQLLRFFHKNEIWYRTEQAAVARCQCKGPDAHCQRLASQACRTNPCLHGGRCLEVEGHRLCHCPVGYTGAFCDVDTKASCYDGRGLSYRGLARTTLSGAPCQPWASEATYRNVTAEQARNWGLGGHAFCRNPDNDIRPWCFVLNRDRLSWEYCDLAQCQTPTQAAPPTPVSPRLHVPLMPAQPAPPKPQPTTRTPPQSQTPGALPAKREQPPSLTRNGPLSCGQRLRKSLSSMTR
Procedure: (§1) The activities of the compounds of the invention have been determined in vitro using the following assays protocols for the screening of activity of FXIa and other proteases. Each of these assays were performed in a purified system employing the use of chromogenic assays in microplate plate wells. Chromogenic peptide substrates mimicking natural protein substrates are attached via an amide bond to a chromogenic group. Paranitroaniline (pNA) is released from the peptide following catalyses by the proteolytic enzyme; the absorbance increases and can be monitored at 405 nm.
(§2) All compounds were dissolved in 100% (v/v) DMSO to a stock concentration of 10 mM, the highest concentration of compound used in each assay is 500 μM. The final concentrations of DMSO were 5% (v/v) in 50 mM Tris 137 mM NaCl pH 7.4. Where no test compound was added a final concentration of 5% DMSO was employed.
[…] activity was measured using a chromogenic substrate S-2302 (Chromogenix). Various concentrations of compound were incubated with 10 nM of FXIIa and incubated at 37° C. for 10 minutes in 50 mM Tris, 137 mM NaCl, pH 7.4, prior to the addition of a final concentration of 450 μM S-2302 chromogenic substrate. Kinetic readings at 405 nm were monitored every 12 secs for a total duration of 3 hours at 37° C. Gradients of initial rates were determined and employed to calculate IC50 values. Values of IC50 were converted to Ki values based on the formula:
(§3) Ki=IC50/(1+[Substrate]/Km)
The activity of the compounds of the invention has been categorised based on the Ki values, the categories being “*”, “**” and “***”. […] The category refers to compounds with a Ki value of 0.2 μM to 2 μM.

FXa (human) = FXa (human) (Homo sapiens, UniProt P00742); assay: Determination of selectivity: FXa chromogenic assay (S2765 substrate); settings: fold selectivity for FXIIa over FXa; FXa 5 nM, S2765 350 μM
Chain of FXa (human) (P00742 235-488 limits assumed): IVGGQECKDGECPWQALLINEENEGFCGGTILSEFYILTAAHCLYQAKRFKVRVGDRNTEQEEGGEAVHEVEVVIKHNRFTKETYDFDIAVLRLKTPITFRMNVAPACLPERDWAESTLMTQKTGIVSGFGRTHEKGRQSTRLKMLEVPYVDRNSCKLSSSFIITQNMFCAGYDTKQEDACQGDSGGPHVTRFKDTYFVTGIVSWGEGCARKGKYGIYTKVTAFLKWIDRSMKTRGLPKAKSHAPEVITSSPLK
Chain of FXa (human) (P00742 41-179 partner limits assumed): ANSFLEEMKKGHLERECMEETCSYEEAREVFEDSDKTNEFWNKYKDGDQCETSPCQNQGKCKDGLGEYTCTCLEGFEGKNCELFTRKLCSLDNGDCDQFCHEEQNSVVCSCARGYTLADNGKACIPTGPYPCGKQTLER
Procedure: as §1, §2
(§4) To determine selectivity of test compounds, these test compounds were assayed for inhibitory activity against other serine proteases including FXa and thrombin. Essentially compounds at increasing concentrations were incubated with each enzyme: FXa (5 nM) and thrombin (5 nM), for 10 mins at 37° C. followed the appropriate chromogenic substrate, S2765 (350 μM), and GPR (250 μM) respectively in 50 mM Tris, 137 mM NaCl, pH 7.4. Chromogenic substrates S2765 was from Chromogenix, and GPR from Bachem. Kinetic readings at 405 nm were monitored every 12 secs for a total duration of 3 hours at 37° C. Gradients of initial rates were determined and employed to calculate IC50 values. Values of IC50 were converted to Ki values based on the formula:
as §3
(§5) Where [Substrate] denotes the concentration of substrate used in the assay and Km is the determined value of each enzyme with its own substrate.
The fold selectivity for FXIIa over FXa for the compounds of the invention has been categorised based on the fold selectivity values, the categories being “o”, “oo” and “ooo”. The category “o” refers to fold selectivity values less than 10. The category “oo” refers to a fold selectivity value of 10 to 100. The category “ooo” refers to fold selectivity values greater than 100.

Thrombin (human) = biological target: T2, Thrombin (human) (Homo sapiens, UniProt P00734); assay: Determination of selectivity: thrombin chromogenic assay (GPR substrate); settings: fold selectivity for FXIIa over thrombin; thrombin 5 nM, GPR 250 μM
T2 construct: FXa (5 nM) and thrombin (5 nM)
Procedure: as §1, §2, §4, §3, §5
The fold selectivity for FXIIa over thrombin for the compounds of the invention has been categorised based on the fold selectivity values, the categories being “+”, “++” and “+++”. The category “+” refers to fold selectivity values less than 10. The category “++” refers to a fold selectivity value of 10 to 100. The category “+++” refers to fold selectivity values greater than 100.

| Compound | Ki (FXIIa alpha (Human)) | FXa (human)/FXIIa alpha (human) fold selectivity (FXa (human)) | Thrombin (human)/FXIIa alpha (human) fold selectivity (Thrombin (human)) |
| --- | --- | --- | --- |
| Cc1ccc(OC(=O)N2CCN(C(=O)[C@H](N)CCc3ccccc3)[C@H](C(=O)NCc3ccc4c(c3)nnn4C)C2)cc1 [Compound M00934] | > 2000 nM | oo (a fold selectivity value of 10 to 100) | ++ (a fold selectivity value of 10 to 100) |
| O=C(NCc1cc2ccncc2[nH]1)[C@@H]1CN(C(=O)OCc2ccccc2)CCN1C(=O)[C@H]1C[C@@H](c2ccccc2)CN1 [Compound M00950] | 200 to 2000 nM | oo (a fold selectivity value of 10 to 100) | ++ (a fold selectivity value of 10 to 100) |
| N[C@H](CCC(=O)N1CCCC1)C(=O)N1CCN(C(=O)OCc2ccccc2)C[C@H]1C(=O)NCc1cc2ccncc2[nH]1 [Compound M00951] | 200 to 2000 nM | oo (a fold selectivity value of 10 to 100) | ++ (a fold selectivity value of 10 to 100) |
| N[C@H](CCC(=O)N1CCCC1)C(=O)N1CCN(C(=O)OCc2ccccc2)C[C@H]1C(=O)NCc1cc2cnccc2[nH]1 [Compound M00971] | < 200 nM | ooo (fold selectivity values greater than 100) | +++ (fold selectivity values greater than 100) |
| NCc1ccc(CNC(=O)[C@@H]2CN(C(=O)OCc3ccccc3)CCN2C(=O)[C@H](N)CCc2ccccc2)cc1 [Compound M05086] | > 2000 nM | oo (a fold selectivity value of 10 to 100) | ++ (a fold selectivity value of 10 to 100) |
| Cn1nnc2cc(CNC(=O)[C@@H]3CN(C(=O)OCc4ccccc4)CCN3C(=O)[C@H](N)CCc3ccccc3)ccc21 [Compound M05098, (S)-4-((R)-2-Amino-4-phenyl-butyryl)-3-[(1-methyl-1H-benzotriazol-5-ylmethyl)-carbamoyl]-piperazine-1-carboxylic acid benzyl ester] | > 2000 nM | oo (a fold selectivity value of 10 to 100) | ++ (a fold selectivity value of 10 to 100) |
| Nc1noc2cc(CNC(=O)[C@@H]3CN(C(=O)OCc4ccccc4)CCN3C(=O)[C@H](N)CCc3ccccc3)ccc12 [Compound M05124] | > 2000 nM | oo (a fold selectivity value of 10 to 100) | + (fold selectivity values less than 10) |
| Nc1cc(CNC(=O)[C@@H]2CN(C(=O)OCc3ccccc3)CCN2C(=O)[C@H](N)CCC(=O)N2CCCC2)ccn1 [Compound M05209] | 200 to 2000 nM | oo (a fold selectivity value of 10 to 100) | +++ (fold selectivity values greater than 100) |
| Cn1nnc2cc(CNC(=O)[C@@H]3CN(C(=O)OCc4ccccc4)CCN3C(=O)[C@H](N)CCC(=O)N3CCCC3)ccc21 [Compound M05212] | > 2000 nM | ooo (fold selectivity values greater than 100) | +++ (fold selectivity values greater than 100) |
| N[C@H](CCC(=O)N1CCCC1)C(=O)N1CCN(C(=O)OCc2ccccc2)C[C@H]1C(=O)NCc1ccc2[nH]cnc2c1 [Compound M05213] | > 2000 nM | oo (a fold selectivity value of 10 to 100) | ++ (a fold selectivity value of 10 to 100) |
| CN(C)[C@H](CCC(=O)N1CCCC1)C(=O)N1CCN(C(=O)OCc2ccccc2)C[C@H]1C(=O)NCc1ccc2[nH]cnc2c1 [Compound M05217] | > 2000 nM | oo (a fold selectivity value of 10 to 100) | ++ (a fold selectivity value of 10 to 100) |
| Cn1nnc2cc(CNC(=O)[C@@H]3CC(Oc4ncccn4)CCN3C(=O)[C@H](N)CCC(=O)N3CCCC3)ccc21 (stereo partly drawn) [Compound M05252] | > 2000 nM | oo (a fold selectivity value of 10 to 100) | ++ (a fold selectivity value of 10 to 100) |
| Cn1nnc2cc(CNC(=O)[C@@H]3CN(C(=O)OCc4ccccc4)CCN3C(=O)[C@H]3C[C@@H](c4ccccc4)CN3)ccc21 [Compound M05276] | > 2000 nM | oo (a fold selectivity value of 10 to 100) | ++ (a fold selectivity value of 10 to 100) |
| Cn1nnc2cc(CNC(=O)[C@@H]3C[C@@H](c4ccccc4)CCN3C(=O)[C@H](N)CCC(=O)N3CCCC3)ccc21 [Compound M05375] | > 2000 nM | oo (a fold selectivity value of 10 to 100) | ++ (a fold selectivity value of 10 to 100) |
| Cn1nnc2cc(CNC(=O)[C@@H]3C[C@H](c4ccccc4)CCN3C(=O)[C@H](N)CCC(=O)N3CCCC3)ccc21 [Compound M05385] | > 2000 nM | oo (a fold selectivity value of 10 to 100) | ++ (a fold selectivity value of 10 to 100) |

Source: patent publication US20210087172A1, “FACTOR XIIa INHIBITORS” (UNIVESITY OF LEEDS, priority 2018, published 2021)
